Laboratory results as given in US20220125876A1, “A METHOD OF IMMUNE MODULATION BY MODULATING ABCF1” (Pacific Myco Biosciences, Ltd., priority 2019, published 2022).
Entries after “also recorded” stand apart in the source; their conditions may differ.

Assays:
ABCF1 [1] = conditions: cited from earlier work
ubiquitin = target: T1, ubiquitin (Homo sapiens, UniProt P0CG48); assay: In vitro ubiquitination assay; type: biochemical, mouse; conditions: with UBA1 (E1), Mg2+ and ATP, DTT sensitive
T1 construct: recombinant ABCF1, UBA1, and Ub proteins were incubated in the presence of cofactors; purchased abcam ab139467; host or cells: ubiquitin and E1 from the kit; ABCF1 immunoprecipitated from transfected mouse BMDM
Procedure: In vitro ubiquitination Assay: Abcf1WT and Abcf1C647S expression plasmids were overexpressed in macrophages as described above. Before overexpressing Abcf1C647S expression plasmid, cells were treated with Abcf1 siRNA, as described above to eliminate endogenous Abcf1 levels. Abcf1 siRNA treated cells were washed with cold PBS twice and then Abcf1C647S expression plasmid was overexpressed. Cell lysates were prepared and subjected to co-immunoprecipitation with anti ABCF1 antibody. Extend of overexpression and co-immunoprecipitation was checked by western blot. Ubiquitination Assay was performed on immunoprecipitated samples with Ubiquitylation Assay Kit (abcam; ab139467) according to manufacturer's instructions. Samples were run on a gel and blotted with anti ABCF1 and anti UB antibodies.
To confirm the finding, enzyme activity of ABCF1 was investigated in presence and absence of cofactor Mg^2+ and ATP via an in vitro ubiquitination assay. […] As thio-ester bonds mediate ubiquitin attachment to the E2 enzyme and are DTT sensitive, no such protein band was observed when samples were treated with DTT.
To confirm if the conserved cysteine at position 647 in the ABCF1 sequence is the catalytic cysteine that mediates the E2 function, in vitro ubiquitination assay was performed with Abcf1 WT and Abcf1 C647S (where the cysteine was mutated to a serine) protein constructs. […]

[2] = tested on: bone marrow derived macrophages (BMDM); assay: Immunoblotting of BMDM lysates for protein expression and phosphorylation; type: cell-based, mouse
Procedure: (§1) Western blotting: Cell lysates were prepared as described above. All co-immunoprecipitation samples were prepared without DTT in the sample buffer, unless otherwise mentioned. All other western blot samples were prepared with DTT in the sample buffer. Lysates were electrophoresed and immunoblotted with indicated antibodies.
Cytoplasmic and Nuclear fractionation: Bone marrow macrophages were stimulated with mentioned treatments and cytoplasmic and nuclear fractionation was performed with NE-PER Nuclear and Cytoplasmic Extraction Reagents (Thermo Scientific; 78833) according to manufacturer's instructions.
as §1, with “Cell” for “Western blotting: Cell”
Bone marrow macrophages were stimulated with indicated treatments and cytoplasmic and nuclear fractionation was performed with NE-PER Nuclear and Cytoplasmic Extraction Reagents (Thermo Scientific; 78833) according to manufacturer's instructions.

ABCF1 [3] = assay: Polyubiquitination state of ABCF1 in BMDM (immunoprecipitation with anti-ABCF1, immunoblot with anti-polyubiquitin antibodies); type: cell-based, mouse
[4] = induction of hypoxia, CoCl2 100 μM for 24 hours
[5] = LPS (100 ng/ml) 30 min, SM 100 nM, Dynasore 80 μM
[6] = BMDMs treated with recombinant cytokine for 24 hours (TNFα 10 ng/ml, IL-1β 10 ng/ml, IL-10 50 ng/ml, IFNβ 10,000 IU/50 μl)

CN(C)CCC[C@@]1(c2ccc(F)cc2)OCc2cc(C#N)ccc21 [Escitalopram]
effect on ABCF1 pathway (ABCF1 [1]): known enhancer of the ABCF1 pathway

recombinant ABCF1: recombinant ABCF1 protein used in the in vitro ubiquitination assay
mass / apparent molecular weight shift of ABCF1 (Ub thioester attachment) (ubiquitin): increase in mass size; also recorded: increase in the apparent molecular weight

[Cl][Co][Cl] [CoCl2, Cobalt Chloride]
ABCF1 expression [2, 4]: decreased | HIF-1α expression [2, 4]: increased

CN[C@@H](C)C(=O)N[C@H](C(=O)N1CCC[C@H]1Cn1nnnc1Sc1ccccc1)C(C)OCC#CC#CCO[C@H](C)[C@H](NC(=O)[C@H](C)NC)C(=O)N1CCCC1Cn1nnnc1Sc1ccccc1 (stereo partly shown) [SM]
K63-polyubiquitination of ABCF1 (ABCF1 [3]; [5]): increased | polyubiquitin linkage of ABCF1 (ABCF1 [3]; LPS treatment for 10 minutes): K63-polyubiquitination of ABCF1 instead

O=C(N/N=C/c1ccc(O)c(O)c1)c1cc2ccccc2cc1O [Dynasore]
polyubiquitin linkage of ABCF1 (ABCF1 [3]; Dynasore treatment alone): led to K48-polyubiquitination | K48-polyubiquitination of ABCF1 (ABCF1 [3]; [5]): targeted for K48-polyubiquitination; also recorded: extensively upregulated | K63-polyubiquitination of ABCF1 (ABCF1 [3]; [5]): no K63-polyubiquitination was observed; also recorded: greatly reduced

TNFα
ABCF1 expression [2, 6]: decreased

B1: IL-10: recombinant IL-10 (50 ng/ml) used to treat BMDMs (protein, UniProt P18893 19-178, looked up)
Interleukin-10: SRGQYSREDNNCTHFPVGQSHMLLELRTAFSQVKTFFQTKDQLDNILLTDSLMQDFKGYLGCQALSEMIQFYLVEVMPQAEKHGPEIKEHLNSLGEKLKTLRMRLRRCHRFLPCENKSKAVEQVKSDFNKLQDQGVYKAMNEFDIFINCIEAYMMIKMKS
ABCF1 expression [2, 6]: increased

B2: IFNβ: recombinant IFNβ (10,000 IU/50 μl) used to treat BMDMs (protein, UniProt P01575 22-182, looked up)
Interferon beta: INYKQLQLQERTNIRKCQELLEQLNGKINLTYRADFKIPMEMTEKMQKSYTAFAIQEMLQNVFLVFRNNFSSTGWNETIVVRLLDELHQQTVFLKTVLEEKQEERLTWEMSSTALHLKSYYWRVQRYLKLMKYNSYAWMVVRAEIFRNFLIIRRLTRNFQN
ABCF1 expression [2, 6]: increased

B3: IL-1β: recombinant IL-1β (10 ng/ml) used to treat BMDMs (protein, UniProt P10749 118-269, looked up)
Interleukin-1 beta: VPIRQLHYRLRDEQQKSLVLSDPYELKALHLNGQNINQQVIFSMSFVQGEPSNDKIPVALGLKGKNLYLSCVMKDGTPTLQLESVDPKQYPKKKMEKRFVFNKIEVKSKVEFESAEFPNWYISTSQAEHKPVFLGNNSGQDIIDFTMESVSS
ABCF1 expression [2, 6]: decreased
